From PubChem BioAssay AID328 (DTP/NCI, 2004)
Values joined by “and” are separate entries in the source; they are usually repeats but may differ in a detail not shown here. Equal entries are not always repeated. Toxic doses and inconclusive results are not listed.

System: BDF1 mice, P388 leukemia ip, median survival T/C
Assay: NCI In Vivo Anticancer Drug Screen. Data for tumor model P388 Leukemia (intraperitoneal) in B6D2F1 (BDF1) mice
Conditions: endpoint: median survival time, higher = longer survival
How it was run: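 Transplantable tumour in mice; compound vs vehicle dosing; survival scored; ratio of treated to control reported.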

[1] = dose: 100.0 mg/kg/injection, schedule: Q01DX009 (ip), vehicle: saline
[2] = dose: 50.0 mg/kg/injection, schedule: Q01DX009 (ip), vehicle: saline with Tween-80
[3] = dose: 100.0 mg/kg/injection, schedule: Q01DX009 (ip), vehicle: saline with Tween-80
[4] = dose: 200.0 mg/kg/injection, schedule: Q01DX009 (ip), vehicle: saline with Tween-80
[5] = dose: 100.0 mg/kg/injection, schedule: Q01DX009 (ip), vehicle: Klucel (hydroxypropylcellulose) (HPC)
[6] = dose: 200.0 mg/kg/injection, schedule: Q01DX009 (ip), vehicle: Klucel (hydroxypropylcellulose) (HPC)
[7] = dose: 50.0 mg/kg/injection, schedule: Q04DX003 (ip), vehicle: saline
[8] = dose: 100.0 mg/kg/injection, schedule: Q04DX003 (ip), vehicle: saline
[9] = dose: 400.0 mg/kg/injection, schedule: Q01DX009 (ip), vehicle: saline with Tween-80
[10] = dose: 25.0 mg/kg/injection, schedule: Q01DX009 (ip), vehicle: saline
[11] = dose: 50.0 mg/kg/injection, schedule: Q01DX009 (ip), vehicle: saline

Nc1ccn(C2OC(CO)C(O)C2O)c(=O)n1 (configuration not stated)
T/C (dose: 5.0 mg/kg/injection, schedule: Q01DX010 (ip), vehicle: saline): 190 % of control | T/C (dose: 13.0 mg/kg/injection, schedule: Q03HX024 (ip), vehicle: saline): 300 % of control | T/C (dose: 16.0 mg/kg/injection, schedule: Q01DX005 (ip), vehicle: saline): 170 % of control | T/C (dose: 50.0 mg/kg/injection, schedule: Q01DX005 (ip), vehicle: Klucel (hydroxypropylcellulose) (HPC)): 150 % of control | T/C (dose: 60.0 mg/kg/injection, schedule: Q01DX010 (ip), vehicle: water): 90 % of control and 110 % of control | T/C (dose: 80.0 mg/kg/injection, schedule: Q01DX009 (ip), vehicle: water): 86 % of control | T/C (dose: 80.0 mg/kg/injection, schedule: Q01DX010 (ip), vehicle: water): 90 % of control | T/C [1]: 100 % of control | T/C (dose: 100.0 mg/kg/injection, schedule: Q01DX009 (ip), vehicle: water): 86 % of control and 90 % of control | T/C (dose: 100.0 mg/kg/injection, schedule: Q01DX010 (ip), vehicle: water): 90 % of control | T/C (dose: 160.0 mg/kg/injection, schedule: Q01DX010 (ip), vehicle: saline): 100 % of control | T/C (dose: 200.0 mg/kg/injection, schedule: Q01DX001 (ip), vehicle: saline): 100 % of control | T/C (dose: 200.0 mg/kg/injection, schedule: Q01DX009 (ip), vehicle: saline): 91 % of control and 110 % of control | T/C (dose: 256.0 mg/kg/injection, schedule: Q01DX005 (ip), vehicle: saline): 96 % of control | T/C (dose: 1500.0 mg/kg/injection, schedule: Q04DX003 (ip), vehicle: water): 200 % of control

O=c1c2ccccc2nc(-c2ccccc2)n1-c1nnc(C(F)(F)F)s1
T/C (dose: 3.12 mg/kg/injection, schedule: Q01DX009 (ip), vehicle: saline with Tween-80): 101 % of control | T/C (dose: 6.25 mg/kg/injection, schedule: Q01DX009 (ip), vehicle: saline with Tween-80): 105 % of control | T/C (dose: 12.5 mg/kg/injection, schedule: Q01DX009 (ip), vehicle: saline with Tween-80): 91 % of control

COc1ccccc1NC(=O)O/N=C/c1ccccn1
T/C (dose: 100.0 mg/kg/injection, schedule: Q01DX001 (ip), vehicle: other): 100 % of control | T/C (dose: 200.0 mg/kg/injection, schedule: Q01DX001 (ip), vehicle: other): 95 % of control | T/C (dose: 400.0 mg/kg/injection, schedule: Q01DX001 (ip), vehicle: other): 95 % of control

CSCC1(O)CCCCC1
T/C [2]: 111 % of control | T/C [3]: 101 % of control | T/C [4]: 112 % of control

CCCCC(CC)CCC(O)CC(C)C (configuration not stated)
T/C (dose: 50.0 mg/kg/injection, schedule: Q01DX009 (ip), vehicle: Klucel (hydroxypropylcellulose) (HPC)): 100 % of control | T/C [5]: 95 % of control | T/C (dose: 100.0 mg/kg/injection, schedule: Q04DX003 (ip), vehicle: Klucel (hydroxypropylcellulose) (HPC)): 104 % of control | T/C [6]: 100 % of control | T/C (dose: 200.0 mg/kg/injection, schedule: Q04DX003 (ip), vehicle: Klucel (hydroxypropylcellulose) (HPC)): 100 % of control | T/C (dose: 400.0 mg/kg/injection, schedule: Q04DX003 (ip), vehicle: Klucel (hydroxypropylcellulose) (HPC)): 100 % of control

CC(C)Oc1ccc(Nc2ccccc2)cc1
T/C (dose: 100.0 mg/kg/injection, schedule: Q01DX001 (ip), vehicle: Klucel (hydroxypropylcellulose) (HPC)): 100 % of control | T/C (dose: 200.0 mg/kg/injection, schedule: Q01DX001 (ip), vehicle: Klucel (hydroxypropylcellulose) (HPC)): 100 % of control | T/C (dose: 400.0 mg/kg/injection, schedule: Q01DX001 (ip), vehicle: Klucel (hydroxypropylcellulose) (HPC)): 91 % of control

CC(C)(O)C(Cl)(Cl)Cl
T/C [7]: 115 % of control | T/C [8]: 111 % of control | T/C (dose: 200.0 mg/kg/injection, schedule: Q04DX003 (ip), vehicle: saline): 107 % of control

CC1(C)C2=CCCC3(OCCO3)C2(C)CCC1O (configuration not stated)
T/C [3]: 100 % of control | T/C [4]: 100 % of control | T/C [9]: 90 % of control

CC1(C)C2CCC([CH2][Hg][Cl])C1C2 (configuration not stated)
T/C (dose: 1.5 mg/kg/injection, schedule: Q01DX009 (ip), vehicle: Klucel (hydroxypropylcellulose) (HPC)): 90 % of control | T/C (dose: 3.0 mg/kg/injection, schedule: Q01DX009 (ip), vehicle: Klucel (hydroxypropylcellulose) (HPC)): 100 % of control | T/C (dose: 6.0 mg/kg/injection, schedule: Q01DX009 (ip), vehicle: Klucel (hydroxypropylcellulose) (HPC)): 90 % of control | T/C (dose: 12.0 mg/kg/injection, schedule: Q01DX009 (ip), vehicle: Klucel (hydroxypropylcellulose) (HPC)): 104 % of control | T/C (dose: 25.0 mg/kg/injection, schedule: Q01DX009 (ip), vehicle: saline with Tween-80): 115 % of control

Nc1nc2ccccc2nc1N
T/C [10]: 100 % of control | T/C (dose: 25.0 mg/kg/injection, schedule: Q04DX003 (ip), vehicle: saline): 100 % of control | T/C [11]: 100 % of control | T/C [7]: 95 % of control | T/C [1]: 90 % of control | T/C [8]: 91 % of control

CC1(C)O[C@]2(C)CC[C@@H]1C[C@H]2O
T/C (dose: 50.0 mg/kg/injection, schedule: Q01DX005 (ip), vehicle: saline with Tween-80): 100 % of control | T/C (dose: 100.0 mg/kg/injection, schedule: Q01DX005 (ip), vehicle: saline with Tween-80): 98 % of control | T/C (dose: 200.0 mg/kg/injection, schedule: Q01DX005 (ip), vehicle: saline with Tween-80): 95 % of control

O=C(C=C(C(F)(F)F)C(F)(F)F)c1ccc([N+](=O)[O-])cc1
T/C (dose: 1.56 mg/kg/injection, schedule: Q01DX009 (ip), vehicle: other): 100 % of control | T/C (dose: 3.13 mg/kg/injection, schedule: Q01DX009 (ip), vehicle: other): 109 % of control | T/C (dose: 6.25 mg/kg/injection, schedule: Q01DX009 (ip), vehicle: other): 104 % of control

O=C(OCCC(OC(=O)c1ccccc1)C(COC(=O)c1ccccc1)OC(=O)c1ccccc1)c1ccccc1 (configuration not stated)
T/C [5]: 87 % of control | T/C [6]: 95 % of control

Cc1ccc(C2(C(=O)O)CCCC2)cc1
T/C (dose: 65.0 mg/kg/injection, schedule: Q01DX009 (ip), vehicle: Klucel (hydroxypropylcellulose) (HPC)): 103 % of control | T/C (dose: 150.0 mg/kg/injection, schedule: Q01DX009 (ip), vehicle: Klucel (hydroxypropylcellulose) (HPC)): 94 % of control | T/C [4]: 91 % of control

CC(C)Cn1cnc2c(SCc3ccc(Cl)cc3Cl)nc(N)nc21
T/C (dose: 66.0 mg/kg/injection, schedule: Q01DX009 (ip), vehicle: gum acacia): 112 % of control | T/C (dose: 100.0 mg/kg/injection, schedule: Q01DX009 (ip), vehicle: gum acacia): 95 % of control | T/C (dose: 100.0 mg/kg/injection, schedule: Q04DX003 (ip), vehicle: gum acacia): 88 % of control | T/C (dose: 150.0 mg/kg/injection, schedule: Q01DX009 (ip), vehicle: gum acacia): 100 % of control | T/C (dose: 200.0 mg/kg/injection, schedule: Q01DX009 (ip), vehicle: gum acacia): 104 % of control | T/C (dose: 200.0 mg/kg/injection, schedule: Q04DX003 (ip), vehicle: gum acacia): 88 % of control | T/C (dose: 400.0 mg/kg/injection, schedule: Q01DX009 (ip), vehicle: gum acacia): 120 % of control

C(CC1CO1)C1CO1 (configuration not stated)
T/C (dose: 22.0 mg/kg/injection, schedule: Q01DX009 (ip), vehicle: saline): 119 % of control and 120 % of control | T/C [10]: 157 % of control | T/C (dose: 30.0 mg/kg/injection, schedule: Q04DX003 (ip), vehicle: saline): 113 % of control | T/C (dose: 33.0 mg/kg/injection, schedule: Q01DX009 (ip), vehicle: saline): 150 % of control | T/C [11]: 161 % of control and 166 % of control and 176 % of control | T/C (dose: 67.0 mg/kg/injection, schedule: Q04DX003 (ip), vehicle: saline): 172 % of control and 176 % of control | T/C (dose: 75.0 mg/kg/injection, schedule: Q01DX009 (ip), vehicle: saline): 175 % of control and 200 % of control | T/C [1]: 215 % of control | T/C [8]: 241 % of control and 200 % of control | T/C (dose: 150.0 mg/kg/injection, schedule: Q04DX003 (ip), vehicle: saline): 240 % of control

COCCn1c2c(n/c(=C(\O)OC)c1=N)CCCC=2
T/C [2]: 106 % of control | T/C [3]: 116 % of control | T/C [4]: 97 % of control

O=c1n(CCCl)c(=O)n(CCCl)c(=O)n1CCCl
T/C [3]: 110 % of control | T/C (dose: 100.0 mg/kg/injection, schedule: Q04DX003 (ip), vehicle: saline with Tween-80): 100 % of control | T/C [4]: 110 % of control | T/C (dose: 200.0 mg/kg/injection, schedule: Q04DX003 (ip), vehicle: saline with Tween-80): 104 % of control | T/C [9]: 100 % of control | T/C (dose: 400.0 mg/kg/injection, schedule: Q04DX003 (ip), vehicle: saline with Tween-80): 104 % of control
